Experimental findings from US11634447B2 (priority 2012, dated 2023) are described below.

The test system of the test is bacterial strain LF82 binding to the glycoprotein BSA-(Mannose)3. The test is described as follows: Bacterial Binding Assay (BBA). The format is cell-based, Escherichia coli. Particulars: read-out: Bacterial Binding Assay IC50, LF82/Luciferase strain binding to BSA-(Man)3 coated plates, luminescence. The gist of the method:
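Inhibition of LF82/luciferase E. coli adhesion is read as luminescence after washing off unbound cells. Compound and bacteria (10^7 per well) are co-incubated 40-75 min at room temperature on wells coated with 0.5-2 μg/mL BSA-(Man)3, with BSA-only wells as background; IC50 values derived.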
With `O=C(CN1CCOCC1)N1CCC2(CC1)c1cc(C#C[C@H]3O[C@H](CO)[C@@H](O)[C@H](O)[C@@H]3O)ccc1-c1ccc(C#C[C@H]3O[C@H](CO)[C@@H](O)[C@H](O)[C@@H]3O)cc12` [Compound 221, 1-[2,7-bis[2-[(2R,3S,4R,5S,6R)-3,4,5-trihydroxy-6-(hydroxymethyl)tetrahydropyran-2-yl]ethynyl]spiro[fluorene-9,4piperidine]-1l]-2-morpholino-ethanone], the IC50 was found to be 0.04 nM.

On to `CCn1c2ccc(C#C[C@H]3O[C@H](CO)[C@@H](O)[C@H](O)[C@@H]3O)cc2c2cc(C#C[C@H]3O[C@H](CO)[C@@H](O)[C@H](O)[C@@H]3O)ccc21` [Compound 107, (2R,3S,4R,5S,6R)-2-[2-[9-ethyl-6-[2-[(2R,3S,4R,5S,6R)-3,4,5-trihydroxy-6-(hydroxymethyl)tetrahydropyran-2-yl]ethynyl]carbazol-3-yl]ethynyl]-6-(hydroxymethyl)tetrahydropyran-3,4,5-triol], for which the IC50 was found to be 13 nM.

For the compound `Cc1cc(N2CC(=O)N(c3ccc([C@H]4O[C@H](CO)[C@@H](O)[C@H](O)[C@@H]4O)c(C)c3)CC2=O)ccc1[C@H]1O[C@H](CO)[C@@H](O)[C@H](O)[C@@H]1O` [Compound 172, 1,4-bis[3-methyl-4-[(2R,3S,4R,5S,6R)-3,4,5-trihydroxy-6-(hydroxymethyl)tetrahydropyran-2-yl]phenyl]piperazine-2,5-dione], the IC50 is 188 nM.

`CC(C)(c1ccc(C#C[C@H]2O[C@H](CO)[C@@H](O)[C@H](O)[C@@H]2O)cc1)c1ccc(C#C[C@H]2O[C@H](CO)[C@@H](O)[C@H](O)[C@@H]2O)cc1` [Compound 122, (2R,3S,4R,5S,6R)-2-(hydroxymethyl)-6-[2-[4-[1-methyl-1-[4-[2-[(2R,3S,4R,5S,6R)-3,4,5-trihydroxy-6-(hydroxymethyl)tetrahydropyran-2-yl]ethynyl]phenyl]ethyl]phenyl]ethynyl]tetrahydropyran-3,4,5-triol]: the IC50 came to 29 nM.

For `CCCn1c2cc(C#C[C@H]3O[C@H](CO)[C@@H](O)[C@H](O)[C@@H]3O)ccc2c2ccc(C#C[C@H]3O[C@H](CO)[C@@H](O)[C@H](O)[C@@H]3O)cc21` [Compound 110, (2R,3S,4R,5S,6R)-2-(hydroxymethyl)-6-[2-[9-propyl-7-[2-[(2R,3S,4R,5S,6R)-3,4,5-trihydroxy-6-(hydroxymethyl)tetrahydropyran-2-yl]ethynyl]carbazol-2-yl]ethynyl]tetrahydropyran-3,4,5-triol], the IC50 was found to be 0.89 nM.

In the case of `CN1CCN(CCNC(=O)Cn2c3cc(C#C[C@H]4O[C@H](CO)[C@@H](O)[C@H](O)[C@@H]4O)ccc3c3ccc(C#C[C@H]4O[C@H](CO)[C@@H](O)[C@H](O)[C@@H]4O)cc32)CC1` [Compound 177, 2-[2,7-bis[2-[(2R,3S,4R,5S,6R)-3,4,5-trihydroxy-6-(hydroxymethyl)tetrahydropyran-2-yl]ethynyl]carbazol-9-yl]-N-[2-(4-methylpiperazin-1-yl)ethyl]acetamide], the IC50 came out at 0.66 nM.

As for `O=C(O)CCC1(CCO)c2cc(C#C[C@H]3O[C@H](CO)[C@@H](O)[C@H](O)[C@@H]3O)ccc2-c2ccc(C#C[C@H]3O[C@H](CO)[C@@H](O)[C@H](O)[C@@H]3O)cc21` [Compound 219, 3-[9-(2-hydroxyethyl)-2,7-bis[2-[(2R,3S,4R,5S,6R)-3,4,5-trihydroxy-6-(hydroxymethyl)tetrahydropyran-2-yl]ethynyl]fluoren-9-yl]propanoic acid], the IC50 came out at 3.8 nM.

Turning to `CN1CCN(C(=O)Cn2c3cc(C#C[C@H]4O[C@H](CO)[C@@H](O)[C@H](O)[C@@H]4O)ccc3c3ccc(C#C[C@H]4O[C@H](CO)[C@@H](O)[C@H](O)[C@@H]4O)cc32)CC1` [Compound 179, 2-[2,7-bis[2-[(2R,3S,4R,5S,6R)-3,4,5-trihydroxy-6-(hydroxymethyl)tetrahydropyran-2-yl]ethynyl]carbazol-9-yl]-1-(4-methylpiperazin-1-yl)ethanone], the IC50 came to 7.1 nM.

`OC[C@H]1O[C@H](C#Cc2ccc3nc(C#C[C@H]4O[C@H](CO)[C@@H](O)[C@H](O)[C@@H]4O)ccc3c2)[C@@H](O)[C@@H](O)[C@@H]1O` [Compound 126, (2R,3S,4R,5S,6R)-2-(hydroxymethyl)-6-[2-[2-[2-[(2R,3S,4R,5S,6R)-3,4,5-trihydroxy-6-(hydroxymethyl)tetrahydropyran-2-yl]ethynyl]-6-quinolyl]ethynyl]tetrahydropyran-3,4,5-triol]: the IC50 came to 124 nM.

In the case of `OC[C@H]1O[C@H](c2cc3ccc(C#C[C@H]4O[C@H](CO)[C@@H](O)[C@H](O)[C@@H]4O)cc3[nH]2)[C@@H](O)[C@@H](O)[C@@H]1O` [Compound 146, (2R,3 S,4R,5S,6R)-2-(hydroxymethyl)-6-[2-[2-[(2R,3 S,4R,5S,6R)-3,4,5-trihydroxy-6-(hydroxymethyl)tetrahydropyran-2-yl]-1H-indol-6-yl]ethynyl]tetrahydropyran-3,4,5-triol], the IC50 was determined as 165 nM.

Regarding `OC[C@H]1O[C@H](C#Cc2ccc3c(c2)C(O)(c2ccccc2)c2cc(C#C[C@H]4O[C@H](CO)[C@@H](O)[C@H](O)[C@@H]4O)ccc2-3)[C@@H](O)[C@@H](O)[C@@H]1O` (stereo partly drawn) [Compound 167, (2R,3S,4R,5S,6R)-2-(hydroxymethyl)-6-[2-[9-hydroxy-9-phenyl-7-[2-[(2R,3S,4R,5S,6R)-3,4,5-trihydroxy-6-(hydroxymethyl)tetrahydropyran-2-yl]ethynyl]fluoren-2-yl]ethynyl]tetrahydropyran-3,4,5-triol], the IC50 was 16 nM.

With `OC[C@H]1O[C@H](C#Cc2ccc(C#C[C@H]3O[C@H](CO)[C@@H](O)[C@H](O)C3O)cc2)[C@@H](O)[C@@H](O)[C@@H]1O` (stereo in doubt) [Compound 69, (2R,3 S,4R,5R,6R)-2-(hydroxymethyl)-6-[2-[4-[2-[(2R,3 S,4R,5 S,6R)-3,4,5-trihydroxy-6-(hydroxymethyl)tetrahydropyran-2-yl]ethynyl]phenyl]ethynyl]tetrahydropyran-3,4,5-triol], the IC50 was found to be 66 nM.

`Cc1cc(C#C[C@H]2O[C@H](CO)[C@@H](O)[C@H](O)[C@@H]2O)c(C)cc1C#C[C@H]1O[C@H](CO)[C@@H](O)[C@H](O)[C@@H]1O` [Compound 97, (2R,3S,4R,5S,6R)-2-[2-[2,5-dimethy1-4-[2-[(2R,3S,4R,5S,6R)-3,4,5-trihydroxy-6-(hydroxymethyl)tetrahydropyran-2-yl]ethynyl]phenyl]ethynyl]-6-(hydroxymethyl)tetrahydropyran-3,4,5-triol]: the IC50 was determined as 24 nM.

Turning to `OC[C@H]1O[C@H](C#Cc2ccc(C#C[C@H]3O[C@H](CO)[C@@H](O)[C@H](O)[C@@H]3O)c(Cl)c2)[C@@H](O)[C@@H](O)[C@@H]1O` [Compound 102, (2R,3S,4R,5S,6R)-2-[2-[3-chloro-4-[2-[(2R,3S,4R,5S,6R)-3,4,5-trihydroxy-6-(hydroxymethyl)tetrahydropyran-2-yl]ethynyl]phenyl]ethynyl]-6-(hydroxymethyl)tetrahydropyran-3,4,5-triol], the IC50 is 24 nM.

Turning to `OC[C@H]1O[C@H](C#Cc2ccc3c4ccc(C#C[C@H]5O[C@H](CO)[C@@H](O)[C@H](O)[C@@H]5O)cc4n(CCN4CCOCC4)c3c2)[C@@H](O)[C@@H](O)[C@@H]1O` [Compound 189, (2R,3S,4R,5S,6R)-2-(hydroxymethyl)-6-[2-[9-(2-morpholinoethyl)-7-[2-[(2R,3S,4R,5S,6R)-3,4,5-trihydroxy-6-(hydroxymethyl)tetrahydropyran-2-yl]ethynyl]carbazol-2-yl]ethynyl]tetrahydropyran-3,4,5-triol], the IC50 came out at 7.8 nM.

Take `NC1CCC2(CC1)c1cc(C#C[C@H]3O[C@H](CO)[C@@H](O)[C@H](O)[C@@H]3O)ccc1-c1ccc(C#C[C@H]3O[C@H](CO)[C@@H](O)[C@H](O)[C@@H]3O)cc12` [Compound 205]: the IC50 amounted to 0.39 nM.

For `CC(C)OC(=O)c1c(C#C[C@H]2O[C@H](CO)[C@@H](O)[C@H](O)[C@@H]2O)ccc2c1C1(CCNCC1)c1cc(C#C[C@H]3O[C@H](CO)[C@@H](O)[C@H](O)[C@@H]3O)ccc1-2` [Compound 208], the IC50 was determined as 0.03 nM.

On to `Cc1cc(-c2ccc([C@H]3O[C@H](CO)[C@@H](O)[C@H](O)[C@@H]3O)c(C)c2)ccc1[C@H]1O[C@H](CO)[C@@H](O)[C@H](O)[C@@H]1O` [Compound 68], for which the IC50 stood at 7.7 nM.

Take `COc1cc(C#C[C@H]2O[C@H](CO)[C@@H](O)[C@H](O)[C@@H]2O)ncc1C#C[C@H]1O[C@H](CO)[C@@H](O)[C@H](O)[C@@H]1O` [Compound 134, (2R,3S,4R,5S,6R)-2-(hydroxymethyl)-6-[2-[4-methoxy-5-[2-[(2R,3S,4R,5S,6R)-3,4,5-trihydroxy-6-(hydroxymethyl)tetrahydropyran-2-yl]ethynyl]-2-pyridyl]ethynyl]tetrahydropyran-3,4,5-triol]: the IC50 worked out at 44 nM.

With `Cc1cccc(C(=O)c2c(C#C[C@H]3O[C@H](CO)[C@@H](O)[C@H](O)[C@@H]3O)ccc3c2C2(CCNCC2)c2cc(C#C[C@H]4O[C@H](CO)[C@@H](O)[C@H](O)[C@@H]4O)ccc2-3)n1` [Compound 239, [2,7-bis[2-[(2R,3S,4R,5S,6R)-3,4,5-trihydroxy-6-(hydroxymethyl)tetrahydropyran-2-yl]ethynyl]spiro[fluorene-9,4piperidine]-1yl]-(6-methyl-2-pyridyl)methanone], the IC50 worked out at 0.35 nM.

As to `Cn1cc(C(=O)c2c(C#C[C@H]3O[C@H](CO)[C@@H](O)[C@H](O)[C@@H]3O)ccc3c2C2(CCNCC2)c2cc(C#C[C@H]4O[C@H](CO)[C@@H](O)[C@H](O)[C@@H]4O)ccc2-3)cn1` [Compound 245, [2,7-bis[2-[(2R,3S,4R,5S,6R)-3,4,5-trihydroxy-6-(hydroxymethyl)tetrahydropyran-2-yl]ethynyl]spiro[fluorene-9,4piperidine]-1yl]-(1-methylpyrazol-4-yl)methanone], the IC50 was 0.14 nM.
